For this assay, the target named is human F508del-CFTR (Homo sapiens, UniProt P13569, DEL508-508). In words: F508del-CFTR cell surface expression (corrector activity), DiscoveRx ß-galactosidase complementation chemiluminescence assay in recombinant U2OS cell line.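 For all read-outs here: U2OS cells co-expressing ProLink-tagged F508del-CFTR and a membrane-anchored enzyme acceptor, where more surface CFTR restores β-galactosidase activity measured by chemiluminescence.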 As to conditions: U2OS cell line, 16h compound incubation; for EC50: EC50, F508del-CFTR cell surface expression, geomean values; for Emax: in relation to the Emax of the corrector lumacaftor (=100%), arithmetic mean values.
Sequence of human F508del-CFTR (P13569 with tags, fused parts or gaps DEL508-508): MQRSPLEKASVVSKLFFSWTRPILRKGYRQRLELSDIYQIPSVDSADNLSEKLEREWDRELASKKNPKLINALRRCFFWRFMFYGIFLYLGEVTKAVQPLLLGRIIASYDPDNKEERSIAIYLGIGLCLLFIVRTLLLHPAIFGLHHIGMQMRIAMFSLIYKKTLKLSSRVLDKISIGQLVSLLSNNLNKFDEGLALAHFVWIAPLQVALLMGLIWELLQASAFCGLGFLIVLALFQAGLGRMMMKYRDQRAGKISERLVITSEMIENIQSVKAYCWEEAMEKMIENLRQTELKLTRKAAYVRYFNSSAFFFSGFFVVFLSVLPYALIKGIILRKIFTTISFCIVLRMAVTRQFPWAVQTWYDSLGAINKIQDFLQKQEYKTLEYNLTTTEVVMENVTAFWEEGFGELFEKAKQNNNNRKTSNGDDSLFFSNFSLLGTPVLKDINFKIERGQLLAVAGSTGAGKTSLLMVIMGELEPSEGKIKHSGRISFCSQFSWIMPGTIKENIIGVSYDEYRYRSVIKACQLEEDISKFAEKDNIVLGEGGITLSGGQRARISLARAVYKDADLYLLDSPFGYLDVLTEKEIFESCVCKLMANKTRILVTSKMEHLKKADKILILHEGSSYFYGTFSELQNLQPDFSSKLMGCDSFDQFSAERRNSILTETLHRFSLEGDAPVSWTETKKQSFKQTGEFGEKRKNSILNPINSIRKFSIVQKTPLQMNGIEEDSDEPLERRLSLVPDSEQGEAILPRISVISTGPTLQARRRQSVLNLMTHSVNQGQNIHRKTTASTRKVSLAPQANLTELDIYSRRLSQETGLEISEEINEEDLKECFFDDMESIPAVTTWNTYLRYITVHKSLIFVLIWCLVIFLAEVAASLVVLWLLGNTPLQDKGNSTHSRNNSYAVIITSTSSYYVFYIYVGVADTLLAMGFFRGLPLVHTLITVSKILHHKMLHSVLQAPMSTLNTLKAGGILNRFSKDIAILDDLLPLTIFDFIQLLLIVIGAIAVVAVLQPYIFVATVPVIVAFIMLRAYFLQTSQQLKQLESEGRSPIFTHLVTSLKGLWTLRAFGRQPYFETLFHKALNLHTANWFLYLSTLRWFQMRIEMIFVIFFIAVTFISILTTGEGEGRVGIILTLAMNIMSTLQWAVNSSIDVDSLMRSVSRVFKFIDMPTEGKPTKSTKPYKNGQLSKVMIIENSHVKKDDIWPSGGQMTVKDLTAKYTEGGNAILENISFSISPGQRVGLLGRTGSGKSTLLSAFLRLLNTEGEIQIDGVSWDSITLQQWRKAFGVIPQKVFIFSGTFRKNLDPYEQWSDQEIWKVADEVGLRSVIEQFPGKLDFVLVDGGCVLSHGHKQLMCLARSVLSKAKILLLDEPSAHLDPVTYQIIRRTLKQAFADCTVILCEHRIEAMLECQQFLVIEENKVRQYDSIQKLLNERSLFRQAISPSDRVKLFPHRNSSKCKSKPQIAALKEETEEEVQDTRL

Each structure is given as a SMILES string.

As for `COc1ccc(CCNC(=O)[C@@H]2CC(=O)N(C)[C@@H](CC(C)C)C(=O)N3CCCC[C@@H]3C(=O)N[C@H](Cc3ccccc3)COc3cnc4ccccc4c3C(=O)N2)cc1` [Example 84, (9S,13S,19aR,22R)-22-benzyl-13-isobutyl-N-(4-methoxyphenethyl)-12-methyl-7,11,14,20-tetraoxo-7,8,9,10,11,12,13,14,17,18,19,19a,20,21,22,23-hexadecahydro-16H-pyrido[2′,1′:6,7][1]oxa[4,7,10,14]tetraazacycloheptadecino[17,16-c]quinoline-9-carboxamide], the EC50 came out at 274 nM. Moreover, under “U2OS”, the Emax was 299%.
For `CC(C)C[C@H]1C(=O)N2CCCC[C@@H]2C(=O)N[C@H](Cc2ccccc2)COc2cnc3ccccc3c2C(=O)N[C@H](C(=O)NCCc2noc(C(C)(C)C)n2)CC(=O)N1C` [Example 85, (9S,13S,19aR,22R)-22-benzyl-N-(2-(5-(tert-butyl)-1,2,4-oxadiazol-3-yl)ethyl)-13-isobutyl-12-methyl-7,11,14,20-tetraoxo-7,8,9,10,11,12,13,14,17,18,19,19a,20,21,22,23-hexadecahydro-16H-pyrido[2′,1′:6,7][1]oxa[4,7,10,14]tetraazacycloheptadecino[17,16-c]quinoline-9-carboxamide], in that order: 260 nM and 244%.
With `Cc1cc(C)cc(-c2noc(CCNC(=O)[C@@H]3CC(=O)N(C)[C@@H](CC(C)C)C(=O)N4CCCC[C@@H]4C(=O)N[C@H](Cc4ccccc4)COc4cnc5ccccc5c4C(=O)N3)n2)c1` [Example 86, (9S,13S,19aR,22R)-22-benzyl-N-(2-(3-(3,5-dimethylphenyl)-1,2,4-oxadiazol-5-yl)ethyl)-13-isobutyl-12-methyl-7,11,14,20-tetraoxo-7,8,9,10,11,12,13,14,17,18,19,19a,20,21,22,23-hexadecahydro-16H-pyrido[2′,1′:6,7][1]oxa[4,7,10,14]tetraazacycloheptadecino[17,16-c]quinoline-9-carboxamide], the EC50 was determined as 314 nM. Moreover, the Emax (U2OS) stood at 157%.
On the same counts, the results for `CC(C)C[C@H]1C(=O)N2CCCC[C@@H]2C(=O)N[C@H](Cc2ccccc2)COc2cnc3ccccc3c2C(=O)N[C@H](C(=O)NCCc2nc(-c3ccccc3OC(F)(F)F)no2)CC(=O)N1C` [Example 87, (9S,13S,19aR,22R)-22-benzyl-13-isobutyl-12-methyl-7,11,14,20-tetraoxo-N-(2-(3-(2-(trifluoromethoxy)phenyl)-1,2,4-oxadiazol-5-yl)ethyl)-7,8,9,10,11,12,13,14,17,18,19,19a,20,21,22,23-hexadecahydro-16H-pyrido[2′,1′:6,7][1]oxa[4,7,10,14]tetraazacycloheptadecino[17,16-c]quinoline-9-carboxamide] are 162 nM and 190%.
On to `CC(C)C[C@H]1C(=O)N2CCCC[C@@H]2C(=O)N[C@H](Cc2ccccc2)COc2cnc3ccccc3c2C(=O)N[C@H](C(=O)NCCc2nnc(-c3ccccc3OC(F)(F)F)[nH]2)CC(=O)N1C` [Example 88, (9S,13S,19aR,22R)-22-benzyl-13-isobutyl-12-methyl-7,11,14,20-tetraoxo-N-(2-(5-(2-(trifluoromethoxy)phenyl)-4H-1,2,4-triazol-3-yl)ethyl)-7,8,9,10,11,12,13,14,17,18,19,19a,20,21,22,23-hexadecahydro-16H-pyrido[2′,1′:6,7][1]oxa[4,7,10,14]tetraazacycloheptadecino[17,16-c]quinoline-9-carboxamide], for which the EC50 is 230 nM. The Emax (U2OS) amounted to 112%.
With `CC(C)C[C@H]1C(=O)N2CCCC[C@@H]2C(=O)N[C@H](Cc2ccccc2)COc2cnc3ccccc3c2C(=O)N[C@H](C(=O)NCCc2cc(C(C)(C)C)on2)CC(=O)N1C` [Example 89, (9S,13S,19aR,22R)-22-benzyl-N-(2-(5-(tert-butyl)isoxazol-3-yl)ethyl)-13-isobutyl-12-methyl-7,11,14,20-tetraoxo-7,8,9,10,11,12,13,14,17,18,19,19a,20,21,22,23-hexadecahydro-16H-pyrido[2′,1′:6,7][1]oxa[4,7,10,14]tetraazacycloheptadecino[17,16-c]quinoline-9-carboxamide], the 50% effective concentration (EC50) turned out to be 132 nM and the maximal response (Emax) came to 262%.
For `CC(C)C[C@H]1C(=O)N2CCCC[C@@H]2C(=O)N[C@H](Cc2ccccc2)COc2cnc3ccccc3c2C(=O)N[C@H](C(=O)NCCc2cc(C(C)(C)C)on2)CC(=O)N1C` [Example 90, (9S,13S,19aS,22R)-22-benzyl-N-(2-(5-(tert-butyl)isoxazol-3-yl)ethyl)-13-isobutyl-12-methyl-7,11,14,20-tetraoxo-7,8,9,10,11,12,13,14,17,18,19,19a,20,21,22,23-hexadecahydro-16H-pyrido[2′,1′:6,7][1]oxa[4,7,10,14]tetraazacycloheptadecino[17,16-c]quinoline-9-carboxamide], the EC50 worked out at 364 nM and the Emax is on record as 129%.
With `COc1cc(CCNC(=O)[C@@H]2CC(=O)N(C)[C@@H](CC(C)C)C(=O)N3CCCC[C@@H]3C(=O)N[C@H](Cc3ccccc3)COc3cnc4ccccc4c3C(=O)N2)ccc1F` [Example 91, (9S,13S,19aR,22R)-22-benzyl-N-(4-fluoro-3-methoxyphenethyl)-13-isobutyl-12-methyl-7,11,14,20-tetraoxo-7,8,9,10,11,12,13,14,17,18,19,19a,20,21,22,23-hexadecahydro-16H-pyrido[2′,1′:6,7][1]oxa[4,7,10,14]tetraazacycloheptadecino[17,16-c]quinoline-9-carboxamide], the EC50 was 466 nM. The Emax (U2OS) turned out to be 210%.
On the same counts, the results for `Cc1ccc(F)c(CCNC(=O)[C@@H]2CC(=O)N(C)[C@@H](CC(C)C)C(=O)N3CCCC[C@@H]3C(=O)N[C@H](Cc3ccccc3)COc3cnc4ccccc4c3C(=O)N2)c1` [Example 92, (9S,13S,19aR,22R)-22-benzyl-N-(2-fluoro-5-methylphenethyl)-13-isobutyl-12-methyl-7,11,14,20-tetraoxo-7,8,9,10,11,12,13,14,17,18,19,19a,20,21,22,23-hexadecahydro-16H-pyrido[2′,1′:6,7][1]oxa[4,7,10,14]tetraazacycloheptadecino[17,16-c]quinoline-9-carboxamide] are 289 nM and 256%.
For `COc1cc(CCNC(=O)[C@@H]2CC(=O)N(C)[C@@H](CC(C)C)C(=O)N3CCCC[C@@H]3C(=O)N[C@H](Cc3ccccc3)COc3cnc4ccccc4c3C(=O)N2)ccc1-n1nccn1` [Example 93, (9S,13S,19aR,22R)-22-benzyl-13-isobutyl-N-(3-methoxy-4-(2H-1,2,3-triazol-2-yl)phenethyl)-12-methyl-7,11,14,20-tetraoxo-7,8,9,10,11,12,13,14,17,18,19,19a,20,21,22,23-hexadecahydro-16H-pyrido[2′,1′:6,7][1]oxa[4,7,10,14]tetraazacycloheptadecino[17,16-c]quinoline-9-carboxamide], in that order: 777 nM and 189%.
On the same counts, the results for `CC(C)C[C@H]1C(=O)N2CCCC[C@@H]2C(=O)N[C@H](Cc2ccccc2)COc2cnc3ccccc3c2C(=O)N[C@H](C(=O)NCCc2ccc(F)cc2F)CC(=O)N1C` [Example 94, (9S,13S,19aR,22R)-22-benzyl-N-(2,4-difluorophenethyl)-13-isobutyl-12-methyl-7,11,14,20-tetraoxo-7,8,9,10,11,12,13,14,17,18,19,19a,20,21,22,23-hexadecahydro-16H-pyrido[2′,1′:6,7][1]oxa[4,7,10,14]tetraazacycloheptadecino[17,16-c]quinoline-9-carboxamide] are 257 nM and 201%.
As for `COc1ccc(CCNC(=O)[C@@H]2CC(=O)N(C)[C@@H](CC(C)C)C(=O)N3CCCC[C@@H]3C(=O)N[C@H](Cc3ccccc3)COc3cnc4ccccc4c3C(=O)N2)cc1C` [Example 95, (9S,13S,19aR,22R)-22-benzyl-13-isobutyl-N-(4-methoxy-3-methylphenethyl)-12-methyl-7,11,14,20-tetraoxo-7,8,9,10,11,12,13,14,17,18,19,19a,20,21,22,23-hexadecahydro-16H-pyrido[2′,1′:6,7][1]oxa[4,7,10,14]tetraazacycloheptadecino[17,16-c]quinoline-9-carboxamide], the 50% effective concentration (EC50) worked out at 250 nM. The Emax (U2OS) turned out to be 178%.
On the same counts, the results for `Cc1cccc(CCNC(=O)[C@@H]2CC(=O)N(C)[C@@H](CC(C)C)C(=O)N3CCCC[C@@H]3C(=O)N[C@H](Cc3ccccc3)COc3cnc4ccccc4c3C(=O)N2)c1` [Example 96, (9S,13S,19aR,22R)-22-benzyl-13-isobutyl-12-methyl-N-(3-methylphenethyl)-7,11,14,20-tetraoxo-7,8,9,10,11,12,13,14,17,18,19,19a,20,21,22,23-hexadecahydro-16H-pyrido[2′,1′:6,7][1]oxa[4,7,10,14]tetraazacycloheptadecino[17,16-c]quinoline-9-carboxamide] are 425 nM and 206%.
On the same counts, the results for `CC(C)C[C@H]1C(=O)N2CCCC[C@@H]2C(=O)N[C@H](Cc2ccccc2)COc2cnc3ccccc3c2C(=O)N[C@H](C(=O)NCCc2cccc(F)c2F)CC(=O)N1C` [Example 97, (9S,13S,19aR,22R)-22-benzyl-N-(2,3-difluorophenethyl)-13-isobutyl-12-methyl-7,11,14,20-tetraoxo-7,8,9,10,11,12,13,14,17,18,19,19a,20,21,22,23-hexadecahydro-16H-pyrido[2′,1′:6,7][1]oxa[4,7,10,14]tetraazacycloheptadecino[17,16-c]quinoline-9-carboxamide] are 146 nM and 285%.
For `Cc1cc(CCNC(=O)[C@@H]2CC(=O)N(C)[C@@H](CC(C)C)C(=O)N3CCCC[C@@H]3C(=O)N[C@H](Cc3ccccc3)COc3cnc4ccccc4c3C(=O)N2)no1` [Example 98, (9S,13S,19aR,22R)-22-benzyl-13-isobutyl-12-methyl-N-(2-(5-methylisoxazol-3-yl)ethyl)-7,11,14,20-], in that order: 311 nM and 326%.

Broadly, the EC50 is the concentration needed to bring the measured effect to its halfway point. By Emax is commonly meant the greatest response seen or fitted, relative to the assay's reference.

(Values after US20240208992A1, “MACROCYCLES AS CFTR MODULATORS” (Idorsia Pharmaceuticals Ltd, priority 2021, published 2024).)
